The values that follow come from patent US8686150B2 (Sanofi, priority 2011, dated 2014).

The test deals with T1, human full-length recombinant PKC βII (Homo sapiens, UniProt P05771).
T1 construct: Active human full-length recombinant PKC βII; purchased Invitrogen GmbH, Darmstadt, Germany
T1 sequence (P05771 1-673 isoform P05771-2): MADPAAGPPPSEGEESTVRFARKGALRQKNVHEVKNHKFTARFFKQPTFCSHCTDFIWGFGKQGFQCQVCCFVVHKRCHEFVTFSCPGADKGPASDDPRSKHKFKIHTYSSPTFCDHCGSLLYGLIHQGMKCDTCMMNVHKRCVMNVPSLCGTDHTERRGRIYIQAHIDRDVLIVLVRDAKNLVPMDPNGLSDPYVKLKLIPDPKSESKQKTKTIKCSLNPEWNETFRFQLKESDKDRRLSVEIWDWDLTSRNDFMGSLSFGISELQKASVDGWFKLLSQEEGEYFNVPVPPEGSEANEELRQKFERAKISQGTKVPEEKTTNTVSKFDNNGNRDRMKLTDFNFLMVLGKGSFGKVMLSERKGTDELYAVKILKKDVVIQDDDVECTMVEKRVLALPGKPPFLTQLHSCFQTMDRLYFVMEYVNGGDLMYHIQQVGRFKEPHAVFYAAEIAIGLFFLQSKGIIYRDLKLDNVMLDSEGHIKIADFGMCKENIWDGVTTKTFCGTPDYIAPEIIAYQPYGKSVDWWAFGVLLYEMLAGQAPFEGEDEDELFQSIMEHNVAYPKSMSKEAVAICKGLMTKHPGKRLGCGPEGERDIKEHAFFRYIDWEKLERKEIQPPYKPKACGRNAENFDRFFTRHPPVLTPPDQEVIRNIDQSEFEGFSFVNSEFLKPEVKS
Description: Determination of PKC βII inhibition (Caliper mobility-shift kinase assay, Fluorescein-RFARKGSLRQKNV peptide substrate). The following applies: example compounds at a final concentration of 1.14 μM (±0.15 μM). Type of test: biochemical. In outline: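 Full-length PKC βII (30 ng/ml in pre-dilution) with PS/DAG/Ca2+ activators, pH 7.4; fluorescein peptide and ATP at 3 μM and 120 μM before mixing. Reaction ran 60 min at 32 °C, was EDTA-stopped, and was read by mobility shift. % inhibition came from product/(substrate+product) peak heights, tested at 1.14 μM final.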
Broadly, the inhibition is the change of the read-out against control, counted positive when it falls. For the compound `Cc1n[nH]c2nc(-c3ccc(O)cc3F)cc(C(=O)NCCC(C)(C)N)c12` [Example 67, 6-(2-Fluoro-4-hydroxy-phenyl)-3-methyl-1H-pyrazolo[3,4-b]pyridine-4-carboxylic acid (3-amino-3-methyl-butyl)-amide], the inhibition at 1.14 µM was 86%. What is called % Inhibition is the change of the read-out against control, counted positive when it falls. As to `Cc1n[nH]c2nc(-c3ccc(O)c(F)c3)cc(C(=O)NC3CC4CCC(C3)N4C)c12` [Example 318, 6-(3-Fluoro-4-hydroxy-phenyl)-3-methyl-1H-pyrazolo[3,4-b]pyridine-4-carboxylic acid (3R)-8-methyl-8-aza-bicyclo[3.2.1]oct-3-yl)-amide], the “% Inhibition” value stood at 61%. As for `CCC[C@@H]1CN(C(=O)c2cc(-c3ccc(O)c(F)c3)nc3[nH]nc(C)c23)CCN1` [Example 291, [6-(3-Fluoro-4-hydroxy-phenyl)-3-methyl-1H-pyrazolo[3,4-b]pyridin-4-yl]-((R)-3-propyl-piperazin-1-yl)-methanone], the inhibition at 1.14 µM was determined as 89%. Regarding `Cc1n[nH]c2nc(-c3ccc(O)cc3)cc(C(=O)N3CCCC4CNCCC43)c12` (centres unmarked) [Example 230, [6-(4-Hydroxy-phenyl)-3-methyl-1H-pyrazolo[3,4-b]pyridin-4-yl]-(octahydro-[1,6]naphthyridin-1-yl)-methanone], the inhibition at 1.14 µM is 93%. On the same count and under the same terms, under `Cc1n[nH]c2nc(-c3ccc(O)cc3)cc(C(=O)N3C[C@H](C)NC[C@@H]3C)c12` [Example 88, ((2S,5S)-2,5-Dimethyl-piperazin-1-yl)-[6-(4-hydroxy-phenyl)-3-methyl-1H-pyrazolo[3,4-b]pyridin-4-yl]-methanone] stands 101%.

As to `Cc1n[nH]c2nc(-c3ccc(O)cc3F)cc(C(=O)N3CCN[C@@H](C)C3)c12` [Example 424, [6-(2-Fluoro-4-hydroxy-phenyl)-3-methyl-1H-pyrazolo[3,4-b]pyridin-4-yl]-((S)-3-methyl-piperazin-1-yl)-methanone], the inhibition at 1.14 µM was 100%.

Take `Cc1n[nH]c2nc(-c3ccc(O)cc3)cc(C(=O)NC3CC4CCC(C3)N4C)c12` (centres unmarked) [Example 219, 6-(4-Hydroxy-phenyl)-3-methyl-1H-pyrazolo[3,4-b]pyridine-4-carboxylic acid (8-methyl-8-aza-bicyclo[3.2.1]oct-3-yl)-amide]: the inhibition at 1.14 µM is 89%. With `Cc1n[nH]c2nc(-c3ccc(O)cc3F)cc(C(=O)N3C[C@H]4CNC[C@H]4C3)c12` [Example 419, [6-(2-Fluoro-4-hydroxy-phenyl)-3-methyl-1H-pyrazolo[3,4-b]pyridin-4-yl]-(3aR,6aS)-hexahydro-pyrrolo[3,4-c]pyrrol-2-yl-methanone], the inhibition at 1.14 µM turned out to be 79%. The same measure, in the same setting: then `CC(=O)N1CCC(NC(=O)c2cc(-c3ccc(O)c(F)c3)nc3[nH]nc(C)c23)CC1` [Example 357, 6-(3-Fluoro-4-hydroxy-phenyl)-3-methyl-1H-pyrazolo[3,4-b]pyridine-4-carboxylic acid (1-acetyl-piperidin-4-yl)-amide], with 21%.

On to `Cc1n[nH]c2nc(-c3ccc(O)cc3)cc(C(=O)NC3CCN(Cc4ccccc4)C3)c12` (centres unmarked) [Example 384, 6-(4-Hydroxy-phenyl)-3-methyl-1H-pyrazolo[3,4-b]pyridine-4-carboxylic acid (1-benzyl-pyrrolidin-3-yl)-amide], for which the inhibition at 1.14 µM worked out at 67%.

Turning to `Cc1n[nH]c2nc(-c3ccc(O)cc3)cc(C(=O)N3CC4CC3CN4)c12` (centres unmarked) [Example 19, 2,5-Diaza-bicyclo[2.2.1]hept-2-yl-[6-(4-hydroxy-phenyl)-3-methyl-1H-pyrazolo[3,4-b]pyridin-4-yl]-methanone], the inhibition at 1.14 µM came to 92%. On the same count and under the same terms, under `CCN1CCCN(C(=O)c2cc(-c3ccc(O)cc3)nc3[nH]nc(C)c23)CC1` [Example 281, (4-Ethyl-[1,4]diazepan-1-yl)-[6-(4-hydroxy-phenyl)-3-methyl-1H-pyrazolo[3,4-b]pyridin-4-yl]-methanone] stands 85%. For `COc1ccccc1C1CNCCN1C(=O)c1cc(-c2ccc(O)cc2)nc2[nH]nc(C)c12` (centres unmarked) [Example 79, [6-(4-Hydroxy-phenyl)-3-methyl-1H-pyrazolo[3,4-b]pyridin-4-yl]-[2-(2-methoxy-phenyl)-piperazin-1-yl]-methanone], the inhibition at 1.14 µM was determined as 82%.

Consider `CC[C@H]1CN(C(=O)c2cc(-c3ccc(O)c(F)c3)nc3[nH]nc(C)c23)CCN1` [Example 295, ((S)-3-Ethyl-piperazin-1-yl)-[6-(3-fluoro-4-hydroxy-phenyl)-3-methyl-1H-pyrazolo[3,4-b]pyridin-4-yl]-methanone], for which the inhibition at 1.14 µM was 94%. For `CCc1n[nH]c2nc(-c3ccc(O)cc3)cc(C(=O)NC3CC4(CCNCC4)c4ccccc43)c12` (centres unmarked) [Example 181, 3-Ethyl-6-(4-hydroxy-phenyl)-1H-pyrazolo[3,4-b]pyridine-4-carboxylic acid (2,3-dihydrospiro[1H-indene-1,4′-piperidin]-3-yl)-amide], the inhibition at 1.14 µM turned out to be 77%. For the compound `O=C(N[C@H]1CN2CCC1CC2)c1cc(-c2ccc(O)cc2)nc2[nH]nc(C(F)(F)F)c12` [Example 413, 6-(4-Hydroxy-phenyl)-3-trifluoromethyl-1H-pyrazolo[3,4-b]pyridine-4-carboxylic acid [(R)-1-aza-bicyclo[2.2.2]oct-3-yl]-amide], the inhibition at 1.14 µM worked out at 29%. Same read-out and setting: then `Cc1cc(O)ccc1-c1cc(C(=O)N2CCNCC2c2cccc(F)c2F)c2c(C)n[nH]c2n1` (centres unmarked) [Example 139, [2-(2,3-Difluoro-phenyl)-piperazin-1-yl]-[6-(4-hydroxy-2-methyl-phenyl)-3-methyl-1H-pyrazolo[3,4-b]pyridin-4-yl]-methanone], with 99%.

Consider `Cc1n[nH]c2nc(-c3ccc(O)cc3F)cc(C(=O)N3CC(C)NCC34CCCC4)c12` (centres unmarked) [Example 438, [6-(2-Fluoro-4-hydroxy-phenyl)-3-methyl-1H-pyrazolo[3,4-b]pyridin-4-yl]-(8-methyl-6,9-diaza-spiro[4.5]dec-6-yl)-methanone], for which the inhibition at 1.14 µM is 98%. Still for that read-out and setting: then `Cc1n[nH]c2nc(-c3ccc(O)cc3)cc(C(=O)N(CCc3ccccc3)[C@@H]3CCCNC3)c12` [Example 22, 6-(4-Hydroxy-phenyl)-3-methyl-1H-pyrazolo[3,4-b]pyridine-4-carboxylic acid phenethyl-(R)-piperidin-3-yl-amide], with 63%; and `CCc1n[nH]c2nc(-c3ccc(O)cc3)cc(C(=O)N3CCC4(CCCNC4)C3)c12` (centres unmarked) [Example 173, (2,7-Diaza-spiro[4.5]dec-2-yl)-[3-ethyl-6-(4-hydroxy-phenyl)-1H-pyrazolo[3,4-b]pyridin-4-yl]-methanone], with 58%. Still for that read-out and setting: under `Cc1n[nH]c2nc(-c3ccc(O)cc3)cc(C(=O)N3CCN(C(=O)C4CCCO4)CC3)c12` (centres unmarked) [Example 280, [6-(4-Hydroxy-phenyl)-3-methyl-1H-pyrazolo[3,4-b]pyridin-4-yl]-[4-(tetrahydro-furan-2-carbonyl)-piperazin-1-yl]-methanone] stands 88%; under `Cc1n[nH]c2nc(-c3ccc(O)cc3)cc(C(=O)N3CCNC[C@H]3C)c12` [Example 23, [6-(4-Hydroxy-phenyl)-3-methyl-1H-pyrazolo[3,4-b]pyridin-4-yl]-((R)-2-methyl-piperazin-1-yl)-methanone], 95%; under `CCN1CCCC(NC(=O)c2cc(-c3ccc(O)cc3)nc3[nH]nc(C)c23)C1` (centres unmarked) [Example 273, 6-(4-Hydroxy-phenyl)-3-methyl-1H-pyrazolo[3,4-b]pyridine-4-carboxylic acid (1-ethyl-piperidin-3-yl)-amide], 83%. Take `Cc1n[nH]c2nc(-c3ccc(O)cc3)cc(C(=O)N[C@@H]3CN4CCC3CC4)c12` [Example 200]: the “% Inhibition” value turned out to be 70%. On to `Cc1n[nH]c2nc(-c3ccc(O)cc3)cc(C(=O)N3CC(C)(C)NCC3C)c12` (centres unmarked) [Example 113, [6-(4-Hydroxy-phenyl)-3-methyl-1H-pyrazolo[3,4-b]pyridin-4-yl]-(2,5,5-trimethyl-piperazin-1-yl)-methanone], for which the inhibition at 1.14 µM was 93%.

With `Cc1n[nH]c2nc(-c3ccc(O)c(F)c3)cc(C(=O)NC3CC4CCC(C3)N4C)c12` (centres unmarked) [Example 301, 6-(3-Fluoro-4-hydroxy-phenyl)-3-methyl-1H-pyrazolo[3,4-b]pyridine-4-carboxylic acid (8-methyl-8-aza-bicyclo[3.2.1]oct-3-yl)-amide], the inhibition at 1.14 µM was found to be 63%. The same measure, in the same setting: then `CCCc1n[nH]c2nc(-c3ccc(O)cc3)cc(C(=O)N3CCNCC3)c12` [Example 4], with 86%; and `Cc1n[nH]c2nc(-c3ccc(O)cc3)cc(C(=O)N[C@H]3CC[C@@H](N)CC3)c12` [Example 103, 6-(4-Hydroxy-phenyl)-3-methyl-1H-pyrazolo[3,4-b]pyridine-4-carboxylic acid (cis-4-amino-cyclohexyl)-amide], with 72%; and `CCOc1cc(-c2cc(C(=O)N3CCNCC3)c3c(C)n[nH]c3n2)ccc1O` [Example 15, [6-(3-Ethoxy-4-hydroxy-phenyl)-3-methyl-1H-pyrazolo[3,4-b]pyridin-4-yl]-piperazin-1-yl-methanone], with 35%. Same read-out and setting: under `Cc1n[nH]c2nc(-c3ccc(O)cc3)cc(C(=O)NC3CNC3)c12` [Example 248, 6-(4-Hydroxy-phenyl)-3-methyl-1H-pyrazolo[3,4-b]pyridine-4-carboxylic acid azetidin-3-ylamide] stands 83%; under `Cc1n[nH]c2nc(-c3ccc(O)cc3)cc(C(=O)N3CCN[C@@H](C)C3)c12` [Example 190, [6-(4-Hydroxy-phenyl)-3-methyl-1H-pyrazolo[3,4-b]pyridin-4-yl]-((S)-3-methyl-piperazin-1-yl)-methanone], 101%. Same read-out and setting: under `Cc1n[nH]c2nc(-c3ccc(O)cc3)cc(C(=O)N[C@@H]3CCCC[C@@H]3N)c12` (relative stereo) [Example 126, 6-(4-Hydroxy-phenyl)-3-methyl-1H-pyrazolo[3,4-b]pyridine-4-carboxylic acid (cis-2-amino-cyclohexyl)-amide] stands 48%.
